The text below walks through data of patent US6036957A, “Suppression of T-cell proliferation using peptide fragments of myelin basic protein” (Autoimmune, Inc., priority 1995, dated 2000).

Test [1] relates to MBP reactive T-cell lines. As to the kind of experiment: Reactivity of MBP-reactive T-cell lines to overlapping human MBP peptides (proliferation assay). The format is cell-based. Conditions: for mean frequency of T-cell lines selectively reactive to the peptide, MS vs controls (FIG. 1): result in words. As to the method:
A rapid T-cell cloning technique was used to examine whether there were immunodominant epitopes on human MBP reactive with Class II MHC phenotypes and the frequency of such reactivity. A total of 15,824 short term T-cell lines were generated from 51 human subjects by culturing peripheral blood mononuclear cells ([…]) with purified MBP (100 μg) followed 3 days later, and then every 3-4 days, by the addition of interleukin-2 (IL-2; from ABI, Columbia, Md.) and 2 units recombinant interleukin-4 (IL-4; Genzyme, Boston, Mass.). On Day 13 of culture, an aliquot from each line was tested for reactivity to MBP using the following proliferation assay: T-cell clones (1×10^5 cells/well) were plated in triplicate and cocultured with appropriate stimuli (i.e. 100 μg whole MBP or 5% IL-2) for 72 hours at 37° C., 90% humidity, 5% CO2, in 96 well flat bottomed microtiter plates (Costar). The cells were pulsed with 2 μCi [^3 H]TdR (2 Ci/mmole, New England Nuclear, Boston, Mass.) for the last 18 hours of culture. APCs were prepared by pulsing human Epstein-Barrvirus transformed human B-cells (the virus being commercially available from ATCC) or L-cells which are mouse cells transfected with human DR2 (L-cells are commercially available from ATCC under accession No. ATCC-CCL1 and can be transfected according to the method of Wilkinson, D. et al, J. Exp. Med., 1988, 167:1442-1458 using DNA encoding DR2 as per Wu, S. et al J. Immunol., 1987, 138:2953). B-cells or L-cells were used at 1×10^6 cells/well in complete media either in the presence or absence of 40 pM MBP or phospholipid protein (PLP) for 2 hours at 37° C., washing twice with 4° C. Hanks (Whittaker), followed by irradiation with 5000 rad. at 4° C. To stimulate T-cells without accessory APCs, 2 μM of MBP, PLP, or the appropriate fragment was added directly to the cells for the duration of the culture: 48 hours, followed by pulsing […] and then harvesting. Ten thousand APC's were used for 100,000 T-cell clones.
T-cell lines shown to be reactive to MBP or PLP were then tested using the same technique for reactivity to overlapping oligopeptide 20-mers encompassing the human MBP sequence as shown in Table 1 above. […]
Of a total of 302 cell lines from patients with MS that could be expanded and confirmed to react with MBP on repeated analysis, 140 (46.4%) reacted with MBP residues 84-102; and approximately 70-80% reacted with either MBP residues 84-102 or 143-168. […] The actual frequency of T-cells derived from the peripheral blood that reacted with each MBP peptide for each individual subject was calculated. […]

Test [2] deals with actively induced EAE. As to the kind of experiment: Suppression of actively induced EAE (immunization with MBP/CFA). In kind it is in vivo, Lewis rats. Conditions: FIG. 7, words.
Test [3] concerns short term T-cell lines generated from peripheral blood mononuclear cells. As to the kind of experiment: Frequency of MBP- and PLP-reactive short term T-cell lines (proliferation assay). In kind it is cell-based, human. To be noted: mean +/-SEM. As for the experimental part:
A rapid T-cell cloning technique was used to examine whether there were immunodominant epitopes on human MBP reactive with Class II MHC phenotypes and the frequency of such reactivity. A total of 15,824 short term T-cell lines were generated from 51 human subjects by culturing peripheral blood mononuclear cells ([…]) with purified MBP (100 μg) followed 3 days later, and then every 3-4 days, by the addition of interleukin-2 (IL-2; from ABI, Columbia, Md.) and 2 units recombinant interleukin-4 (IL-4; Genzyme, Boston, Mass.). On Day 13 of culture, an aliquot from each line was tested for reactivity to MBP using the following proliferation assay: T-cell clones (1×10^5 cells/well) were plated in triplicate and cocultured with appropriate stimuli (i.e. 100 μg whole MBP or 5% IL-2) for 72 hours at 37° C., 90% humidity, 5% CO2, in 96 well flat bottomed microtiter plates (Costar). […]
Subjects with other central nervous system diseases had the following diagnoses: 1-3 weeks after either cerebrovascular accident (n=4), brain trauma with CNS hemorrhage (n=4), or metastatic brain tumor (n=2). […] In addition, the frequency of MBP and PLP-reactive lines was calculated separately for each subject by dividing the number of MBP-reactive lines by the total number of lines generated and the mean values +/-SEM are given. […]

Regarding “FKGVDAQGTLSKIFKLGGRD [143-168, human MBP amino acid residues 143-168]”, the “fraction of MBP reactive T-cell lines that recognized either the 84-102 or the 143-168 peptide” value in test [1] (control groups, 100 lines) is reported as “about 34%”. Moreover, in test [1] (patients with MS, 302 cell lines), the “fraction of MBP-reactive cell lines that reacted with either MBP residues 84-102 or 143-168” value is given as 70-80%. For the same molecule, in test [1], the “mean frequency of T-cell lines selectively reactive to the peptide, MS vs controls (FIG. 1)” value was “both MS and control subjects showed high frequencies”.

Regarding HHPARTAHYGSLPQKSEGRT [61-82], the “mean frequency of T-cell lines selectively reactive to the peptide, MS vs controls (FIG. 1)” value in test [1] is on record as “Significant but less striking increases in reactivity”.

With “guinea pig MBP peptide 131-150: Control guinea pig MBP peptide 131-150 (DYKSKGFKGAHDAQGTLSKI; UniProt P25188 131-150, looked up, fragment)”, the “suppression of EAE via IV tolerization” value in test [2] (administered intravenously prior to immunization) was “did not suppress”. In test [2] (administered orally prior to immunization), the “suppression of EAE via oral tolerization” value was “did not suppress”.

B1: PLP: proteolipid protein, myelin autoantigen (protein, UniProt P60201 2-277, looked up)
Myelin proteolipid protein: GLLECCARCLVGAPFASLVATGLCFFGVALFCGCGHEALTGTEKLIETYFSKNYQDYEYLINVIHAFQYVIYGTASFFFLYGALLLAEGFYTTGAVRQIFGDYKTTICGKGLSATVTGGQKGRGSRGQHQAHSLERVCHCLGKWLGHPDKFVGITYALTVVWLLVFACSAVPVYIYFNTWTTCQSIAFPSKTSASIGSLCADARMYGVLPWNAFPGKVCGSNLLSICKTAEFQMTFHLFIAAFVGAAATLVSLLTFMIAATYNFAVLKLMGRGTKF
With B1, the “MEAN FREQUENCY OF Ag REACTIVE LINES” value is reported as 3.34 ± 1.56 in test [3] (MS patients (n = 23)) and 0.90 in test [3] (other neurological disease (n=10)).
